Results reported in article PMC8936434 (Frontiers in Pharmacology, 2022).
Where two headings read alike, the source gives them in different places.

Columns and labels:
SW1573 = test: In vitro P-gp assay: antiproliferative activity in wild-type SW1573 cells; type: cell-based; details: Homo sapiens
Experimental: (§1) Compounds were tested against both cell lines in the presence or absence of 10 µM verapamil (a known P-gp and CYP3A4/5 inhibitor).

[1] = In vitro P-gp assay: antiproliferative activity in P-gp-overexpressing SW1573/P-gp cells; details: human
Experimental: as §1

HepG2 cells [2] = test: HepG2 cell viability (MTT assay); type: cell-based; details: Homo sapiens, mean ± SD, 3 experiments
Experimental: Human hepatoma (HepG2) cells (European Collection of Authenticated Cell Cultures) were cultured in Dulbecco’s modified Eagle’s medium (DMEM) supplemented with 10% heat-inactivated fetal bovine serum (FBS) and 2 mM L-glutamine at 37°C in 5% CO2 humidified atmosphere.

HepG2 cells [3] = test: LDH release from HepG2 cells; type: cell-based, Human
primary rat hepatocytes [4] = test: Primary rat hepatocyte viability (trypan blue exclusion assay); type: cell-based; details: read-out: IC50, number of viable cells
primary rat hepatocytes [5] = test: LDH release from primary rat hepatocytes; type: cell-based
hERG K+ channel (Kv11.1) = hERG K+ channel (Kv11.1) (Homo sapiens, UniProt Q12809); test: hERG (Kv11.1) current, whole-cell patch-clamp in hERG-HEK293 cells; type: cell-based
Experimental: hERG-HEK293 cells (BPS Bioscience, San Diego, United States), expressing hERG K^+ channel (Kv11.1), were cultured in Minimal Essential Medium (MEM) supplemented with 10% fetal bovine serum, 1% non-essential amino acids, 1% Na pyruvate, 1% penicillin/streptomycin, and 400 μg/ml geneticin ([Lazzerini et al., 2021]).
The bath solution contained (in mM): 136 NaCl, 5.4 KCl, 10 HEPES, 10 D-glucose ∙ H2O, 1 CaCl2 ∙ 2 H2O, 1 MgCl2 ∙ 6 H2O, pH 7.4 with NaOH, whereas the pipette solution consisted of (in mM): 130 KCl, 10 EGTA, 10 HEPES, 5 MgATP, 1 MgCl2 ∙ 6 H2O, pH 7.2 with KOH.
Whole-cell recording was performed as previously described ([Lazzerini et al., 2021]), and a depolarizing step from a holding potential of […] was applied to elicit the Kv11.1 current. Tail current was evoked by repolarizing the cell membrane to −50 mV for 4 s.

zebrafish ABCB4 = test system: zebrafish ABCB4; parameters: method as in earlier work; details: concentrations up to 100 µM; ref [67]; cited from earlier work
SW1573/P-gp = test: In vitro P-gp assay: antiproliferative activity in P-gp-overexpressing SW1573/P-gp cells; details: P-gp-overexpressing cells
Experimental: as §1

primary rat hepatocytes [6] = test: GSH depletion in isolated rat hepatocytes; type: cell-based; details: compared to Dox
Experimental: Gluthatione (GSH) depletion was evaluated after 24, 48, or 72 h treatment with both anthracyclines. Isolated rat hepatocytes were centrifuged at 400 g for 3 min, and the pellet was used for measuring intracellular GSH by means of the spectrophotometric method based on the conversion of the sulfhydryl reagent 5,5′-dithiobis-(2-nitrobenzoic acid) (DTNB) to the yellow derivative 5′-thio-2-nitrobenzoic acid (TNB) at 412 nm ([Fau et al., 1992]).

zebrafish embryos = test: Zebrafish embryo toxicity
Experimental: After 30 min, the eggs were collected, rinsed twice from debris using fresh embryo medium (Instant ocean), and transferred into Petri dishes containing the embryo medium.
Fertilized eggs were selected under a binocular stereomicroscope (PXS-VI, Optica) and transferred into 24-well plates. […] The embryo medium and 0.1% DMSO were used as controls. Treated embryos and controls were then incubated at 28 ± 0.5°C. Each experiment was repeated three times from three independent breedings. In each experiment, at least 3 wells with 12 embryos per treatment per concentration were used.
The zebrafish embryo toxicity assay was performed when fertilization rate was ≥90%. An assay was considered valid if the overall survival of embryos in negative controls was ≥90% until hatching.
All embryos were inspected for morphological characteristics at different developmental stages (48 and 72 hpf) as described by [Kimmel (1989)]. Lethal and teratogenic effects were recorded according to the Organisation for Economic Co-operation and Development (OECD) (236) guidelines for testing of chemicals. Mortality was determined by counting embryos with or without a visible heart beat at 72 hpf. For visual documentation of the malformations and heartbeat, embryos were imaged and recorded using a camera connected to the microscope (CKX41; Olympus, Tokyo, Japan). Each heartbeat was manually counted for 20 s and multiplied by 3 to calculate heart rate (beat/minute) ([Hoage et al., 2012]). At least three embryos per group were recorded and their heart beat counted.

recombinant human CYP3A4 = recombinant human CYP3A4 (Homo sapiens, UniProt P08684); test: In vitro inhibition of human CYP3A4
Experimental: Kinetic assays were carried out in a final volume of 100 µl containing 10 µM substrate, 2.5 nM recombinant CYP3A4, various concentrations of the tested compounds, and 20% NADPH regenerating system in 100 mM Tris–HCl (pH 7.4). Incubations took place in duplicate at 37°C in 96-multiwell plates; fluorescence was measured with a Victor2 plate reader (PerkinElmer Life Sciences, Turku, Finland). The reaction was started by adding NADPH, and fluorescence was measured at 2-min intervals for 40 min using excitation at 405 nm and emission at 460 nm.

primary rat hepatocytes [7] = test: Lipid peroxidation (MDA) in primary rat hepatocytes; details: compared to Dox
[8] = 10 µM applied at 6 hpf, read at 72 hpf

Chain of hERG K+ channel (Kv11.1) (Q12809 whole entry): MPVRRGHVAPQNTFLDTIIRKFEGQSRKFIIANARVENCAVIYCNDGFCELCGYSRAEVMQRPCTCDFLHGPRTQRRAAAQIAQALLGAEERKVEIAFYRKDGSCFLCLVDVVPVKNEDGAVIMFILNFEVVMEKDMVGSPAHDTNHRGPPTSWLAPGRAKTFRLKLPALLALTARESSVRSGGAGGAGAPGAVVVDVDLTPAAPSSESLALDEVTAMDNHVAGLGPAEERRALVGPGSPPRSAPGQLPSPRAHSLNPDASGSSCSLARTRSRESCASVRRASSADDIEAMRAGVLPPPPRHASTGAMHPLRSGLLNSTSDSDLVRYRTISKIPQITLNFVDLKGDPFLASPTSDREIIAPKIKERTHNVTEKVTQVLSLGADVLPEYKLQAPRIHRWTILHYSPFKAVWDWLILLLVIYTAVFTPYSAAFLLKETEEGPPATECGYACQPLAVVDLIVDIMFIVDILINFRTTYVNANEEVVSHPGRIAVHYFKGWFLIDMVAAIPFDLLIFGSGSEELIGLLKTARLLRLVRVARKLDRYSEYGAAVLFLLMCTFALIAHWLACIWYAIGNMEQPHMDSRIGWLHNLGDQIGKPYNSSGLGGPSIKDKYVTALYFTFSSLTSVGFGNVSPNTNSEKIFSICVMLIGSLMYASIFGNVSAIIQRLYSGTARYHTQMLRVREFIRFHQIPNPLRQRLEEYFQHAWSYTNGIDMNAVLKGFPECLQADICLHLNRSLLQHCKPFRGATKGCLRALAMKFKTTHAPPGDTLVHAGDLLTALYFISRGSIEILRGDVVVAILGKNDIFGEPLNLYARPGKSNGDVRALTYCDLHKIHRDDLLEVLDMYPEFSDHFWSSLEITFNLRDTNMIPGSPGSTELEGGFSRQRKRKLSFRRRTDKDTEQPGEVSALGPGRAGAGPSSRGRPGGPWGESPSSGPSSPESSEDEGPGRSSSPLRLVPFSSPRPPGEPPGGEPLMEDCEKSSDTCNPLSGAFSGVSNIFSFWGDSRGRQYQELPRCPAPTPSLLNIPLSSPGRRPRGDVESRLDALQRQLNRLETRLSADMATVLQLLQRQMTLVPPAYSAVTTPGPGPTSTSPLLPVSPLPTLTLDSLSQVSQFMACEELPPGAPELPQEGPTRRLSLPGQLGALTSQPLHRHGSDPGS
Chain of recombinant human CYP3A4 (P08684 whole entry): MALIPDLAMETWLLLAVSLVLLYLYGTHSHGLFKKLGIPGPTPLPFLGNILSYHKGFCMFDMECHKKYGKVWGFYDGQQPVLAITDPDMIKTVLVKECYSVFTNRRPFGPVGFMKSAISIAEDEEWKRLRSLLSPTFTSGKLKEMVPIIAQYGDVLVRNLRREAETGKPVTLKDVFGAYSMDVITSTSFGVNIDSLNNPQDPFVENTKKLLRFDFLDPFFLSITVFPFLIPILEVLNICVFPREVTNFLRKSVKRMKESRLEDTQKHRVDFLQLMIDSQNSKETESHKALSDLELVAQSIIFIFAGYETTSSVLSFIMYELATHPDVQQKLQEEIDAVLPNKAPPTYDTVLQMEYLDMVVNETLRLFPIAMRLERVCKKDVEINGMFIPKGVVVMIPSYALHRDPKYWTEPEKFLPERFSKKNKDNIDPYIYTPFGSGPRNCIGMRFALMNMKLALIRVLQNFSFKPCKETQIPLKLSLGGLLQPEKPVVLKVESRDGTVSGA

Compound	GI50 (SW1573; SW1573, 48 h) [nM]	GI50 at 48 h [1] [nM]	IC50 (HepG2 cells [2]; 24 h) [nM]	IC50 (HepG2 cells [2]; 48 h) [nM]	IC50 (HepG2 cells [2]; 72 h) [nM]	IC50 (primary rat hepatocytes [4]) [nM]	Release of LDH (primary rat hepatocytes [5])	also measured
COc1cccc2c1C(=O)c1c(O)c3c(c(O)c1C2=O)C[C@@](O)(C(=O)CO)C[C@@H]3O[C@H]1C[C@H](N)[C@H](O)[C@H](C)O1 [Dox, doxorubicin]	70 ± 8.6	1600	6110 ± 660	460 ± 30	190 ± 10	9680 ± 890	increased the release of LDH in a concentration-dependent manner	LDH release (cytotoxicity) compared with Sdox (HepG2 cells [3]; HepG2, regardless of timing of exposure (24, 48, 72 h)): cytotoxic at concentrations lower than those of Sdox; Effect on hERG currents (hERG K+ channel (Kv11.1); up to 100 μM): did not affect; Effect on zebrafish ABCB4 ATPase activity (zebrafish ABCB4): no major effect
CC(=O)O[C@H]1C(=O)[C@@]2(C)[C@H]([C@H](OC(=O)c3ccccc3)[C@]3(O)C[C@H](OC(=O)[C@H](O)[C@@H](NC(=O)c4ccccc4)c4ccccc4)C(C)=C1C3(C)C)[C@]1(OC(C)=O)CO[C@@H]1C[C@@H]2O [Paclitaxel, paclitaxel]	0.53 ± 0.22	298 ± 113						
COc1cc2c(c(OC)c1OC)-c1ccc(OC)c(=O)cc1[C@@H](NC(C)=O)CC2 [Colchicine, colchicine]	67 ± 15	2370						
COc1cccc2c1C(=O)c1c(O)c3c(c(O)c1C2=O)C[C@@](O)(C(=O)COC(=O)c1ccc(-c2ssc(=S)c2-c2ccccc2)cc1)C[C@@H]3O[C@H]1C[C@H](N)[C@H](O)[C@H](C)O1 [Sdox, 2-((2S,4S)-4-(((2R,4S,5S,6S)-4-amino-5-hydroxy-6-methyltetrahydro-2H-pyran-2-yl)oxy)-2,5,12-trihydroxy-7-methoxy-6,11-dioxo-1,2,3,4,6,11-hexahydrotetracen-2-yl)-2-oxoethyl 4-(4-phenyl-3-thioxo-3H-1,2-dithiol-5-yl)benzoate]	873 ± 410		8690 ± 310	3210 ± 160	1390 ± 30	16500 ± 1010	increased the release of LDH in a concentration-dependent manner	GI50 [1]: 3020 nM; Times less affected by P-gp compared with parent compound Dox (SW1573/P-gp): ca. 6.5 times; Concentration at which LDH release was increased (HepG2 cells [3]; HepG2, 24 and 48 h of treatment, only at the maximum concentration tested): 10 µM; Lowest concentration at which LDH release was increased (HepG2 cells [3]; HepG2, 72 h of treatment): 4 µM; Reduced GSH (primary rat hepatocytes [6]): lower decrease in the reduced GSH; Effect on hERG currents (hERG K+ channel (Kv11.1); up to 10 μM): did not affect; Effect on number of live embryos (zebrafish embryos; [8]): ineffective; Embryos alive (zebrafish embryos; [8]): ~90%; Developmental toxicity (zebrafish embryos; 10 µM, 72 hpf): did not display developmental toxicity; Concentration above which a precipitate was observed (zebrafish embryos; zebrafish embryo medium): > 10 µM; IC50 (recombinant human CYP3A4): 3100 nM; MDA levels (index of lipid peroxidation) (primary rat hepatocytes [7]): lower increase in the MDA levels
CC[C@]1(O)C[C@H]2CN(CCc3c([nH]c4ccccc34)[C@@](C(=O)OC)(c3cc4c(cc3OC)N(C=O)[C@H]3[C@@](O)(C(=O)OC)[C@H](OC(C)=O)[C@]5(CC)C=CCN6CC[C@]43[C@@H]65)C2)C1 [Vincristine, vincristine]								GI50 (SW1573; SW1573, w/o verapamil, 48 h exposure, mean ± SD (n = 3–5), read-out: GI50): 3.9 ± 1.5 nM; GI50 at 48 h ([1]; SW1573/P-gp cells (P-gp-overexpressing variant of SW1573)): 86 ± 15 nM
CC[C@]1(O)C[C@@H]2CN(CCc3c([nH]c4ccccc34)[C@@](C(=O)OC)(c3cc4c(cc3OC)N(C)[C@H]3[C@@](O)(C(=O)OC)[C@H](OC(C)=O)[C@]5(CC)C=CCN6CC[C@]43[C@@H]65)C2)C1 [Vinblastine, vinblastine]	0.94 ± 0.35	16 ± 4.7						
